Results taken from PubChem BioAssay AID1963835 (Molecular Pharmacology Branch, DTP, NCI, 2024).

Test system: 699152-130-R-J1-PDC complex spheroid viability
Assay: Anticancer human tumor 699152-130-R-J1-PDC patient-derived pancreatic carcinoma cell line growth inhibition [POLQ]
Conditions: for IC50: curve of first compound; for viability, T/C: stronger effect = lower value
How it was run: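 Growth inhibition in 3D: complex spheroids (tumor PDC, HUVEC, MSC) treated with POLQ inhibitor combinations; where Cmax unknown, highest tested concentration 10 microM, except SN-38 at 1 microM.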

[1] = second compound 0.0316 µM, first compound 0.0316 µM
[2] = second compound 0.0316 µM, first compound 0.1 µM
[3] = second compound 0.0316 µM, first compound 0.316 µM
[4] = second compound 0.0316 µM, first compound 1 µM
[5] = second compound 0.0316 µM, first compound 3.16 µM
[6] = second compound 0.0316 µM, first compound 10 µM
[7] = second compound 0.1 µM, first compound 0.0316 µM
[8] = second compound 0.1 µM, first compound 0.1 µM
[9] = second compound 0.1 µM, first compound 0.316 µM
[10] = second compound 0.1 µM, first compound 1 µM
[11] = second compound 0.1 µM, first compound 3.16 µM
[12] = second compound 0.1 µM, first compound 10 µM
[13] = second compound 0.316 µM, first compound 0.0316 µM
[14] = second compound 0.316 µM, first compound 0.1 µM
[15] = second compound 0.316 µM, first compound 0.316 µM
[16] = second compound 0.316 µM, first compound 1 µM
[17] = second compound 0.316 µM, first compound 3.16 µM
[18] = second compound 0.316 µM, first compound 10 µM
[19] = second compound 1 µM, first compound 0.0316 µM
[20] = second compound 1 µM, first compound 0.1 µM
[21] = second compound 1 µM, first compound 0.316 µM
[22] = second compound 1 µM, first compound 1 µM
[23] = second compound 1 µM, first compound 3.16 µM
[24] = second compound 1 µM, first compound 10 µM
[25] = second compound 3.16 µM, first compound 0.0316 µM
[26] = second compound 3.16 µM, first compound 0.1 µM
[27] = second compound 3.16 µM, first compound 0.316 µM
[28] = second compound 3.16 µM, first compound 1 µM
[29] = second compound 3.16 µM, first compound 3.16 µM
[30] = second compound 3.16 µM, first compound 10 µM
[31] = second compound 10 µM, first compound 0.0316 µM
[32] = second compound 10 µM, first compound 0.1 µM
[33] = second compound 10 µM, first compound 0.316 µM
[34] = second compound 10 µM, first compound 1 µM
[35] = second compound 10 µM, first compound 3.16 µM
[36] = second compound 10 µM, first compound 10 µM
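Also: spheroids exposed to agents for 7 days before viability reading.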
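For viability, T/C in this document: percent of DMSO vehicle control viability so 100% = vehicle and 0% = no viable signal.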

Compound: O=C(Nc1ccc(O)c(NS(=O)(=O)c2ccc(F)cc2)c1)c1ccc(-c2ccccc2)cc1 + Nc1ccc(C#CCN(C(=O)Cc2ncc(C(F)(F)F)cc2C(F)(F)F)c2ccc(F)cc2)nn1
- IC50 (second compound 0.0316 µM): > 10 µM
- IC50 (second compound 0.1 µM): > 10 µM
- IC50 (second compound 0.316 µM): > 10 µM
- IC50 (second compound 1 µM): > 10 µM
- IC50 (second compound 3.16 µM): > 10 µM
- IC50 (second compound 10 µM): > 10 µM
- viability, T/C [1]: 101%
- viability, T/C [2]: 95.9%
- viability, T/C [3]: 98.2%
- viability, T/C [4]: 111%
- viability, T/C [5]: 100%
- viability, T/C [6]: 62.8%
- viability, T/C [7]: 89.5%
- viability, T/C [8]: 102%
- viability, T/C [9]: 95.2%
- viability, T/C [10]: 103%
- viability, T/C [11]: 102%
- viability, T/C [12]: 59.4%
- viability, T/C [13]: 116%
- viability, T/C [14]: 108%
- viability, T/C [15]: 114%
- viability, T/C [16]: 101%
- viability, T/C [17]: 110%
- viability, T/C [18]: 68.8%
- viability, T/C [19]: 108%
- viability, T/C [20]: 103%
- viability, T/C [21]: 104%
- viability, T/C [22]: 102%
- viability, T/C [23]: 102%
- viability, T/C [24]: 64.7%
- viability, T/C [25]: 104%
- viability, T/C [26]: 103%
- viability, T/C [27]: 103%
- viability, T/C [28]: 107%
- viability, T/C [29]: 112%
- viability, T/C [30]: 67.9%
- viability, T/C [31]: 110%
- viability, T/C [32]: 122%
- viability, T/C [33]: 114%
- viability, T/C [34]: 103%
- viability, T/C [35]: 109%
- viability, T/C [36]: 59.3%

Compound: COc1cc(C2c3cc4c(cc3C(OC3OC5COC(C)OC5C(O)C3O)C3COC(=O)C23)OCO4)cc(OC)c1O (stereo unspecified) + COC1C(OC(N)=O)C(O)C(Oc2ccc3c(O)c(NC(=O)c4ccc(O)c(CC=C(C)C)c4)c(=O)oc3c2C)OC1(C)C
- IC50 (second compound 0.0316 µM): 4.01 µM
- IC50 (second compound 0.1 µM): 3.17 µM
- IC50 (second compound 0.316 µM): 4.05 µM
- IC50 (second compound 1 µM): 2.51 µM
- IC50 (second compound 3.16 µM): 4.61 µM
- IC50 (second compound 10 µM): 3.04 µM
- viability, T/C [1]: 92.1%
- viability, T/C [2]: 99.5%
- viability, T/C [3]: 66.4%
- viability, T/C [4]: 72.5%
- viability, T/C [5]: 51.3%
- viability, T/C [6]: 40.2%
- viability, T/C [7]: 83.9%
- viability, T/C [8]: 94%
- viability, T/C [9]: 71.1%
- viability, T/C [10]: 61.1%
- viability, T/C [11]: 54.3%
- viability, T/C [12]: 38.2%
- viability, T/C [13]: 99.5%
- viability, T/C [14]: 80.4%
- viability, T/C [15]: 74.4%
- viability, T/C [16]: 70.8%
- viability, T/C [17]: 46.8%
- viability, T/C [18]: 42.7%
- viability, T/C [19]: 94.5%
- viability, T/C [20]: 87.8%
- viability, T/C [21]: 75%
- viability, T/C [22]: 60.4%
- viability, T/C [23]: 47.7%
- viability, T/C [24]: 38.4%
- viability, T/C [25]: 93%
- viability, T/C [26]: 86.2%
- viability, T/C [27]: 75.3%
- viability, T/C [28]: 66.7%
- viability, T/C [29]: 49.7%
- viability, T/C [30]: 46%
- viability, T/C [31]: 87.3%
- viability, T/C [32]: 85.6%
- viability, T/C [33]: 78.5%
- viability, T/C [34]: 62.6%
- viability, T/C [35]: 50.8%
- viability, T/C [36]: 40.6%

Compound: COc1cccc(OCCCN)c1-c1cc(Nc2cnc(C#N)cn2)n[nH]1 + COC1C(OC(N)=O)C(O)C(Oc2ccc3c(O)c(NC(=O)c4ccc(O)c(CC=C(C)C)c4)c(=O)oc3c2C)OC1(C)C
- IC50 (second compound 0.0316 µM): 0.256 µM
- IC50 (second compound 0.1 µM): 0.524 µM
- IC50 (second compound 0.316 µM): 0.495 µM
- IC50 (second compound 1 µM): 0.297 µM
- IC50 (second compound 3.16 µM): > 1 µM
- IC50 (second compound 10 µM): > 1 µM
- viability, T/C (second compound 0.0316 µM, first compound 0.00316 µM): 92.4%
- viability, T/C (second compound 0.0316 µM, first compound 0.01 µM): 91.4%
- viability, T/C [1]: 57.9%
- viability, T/C [2]: 63%
- viability, T/C [3]: 49.7%
- viability, T/C [4]: 43%
- viability, T/C (second compound 0.1 µM, first compound 0.00316 µM): 96.8%
- viability, T/C (second compound 0.1 µM, first compound 0.01 µM): 89.2%
- viability, T/C [7]: 70.3%
- viability, T/C [8]: 58.1%
- viability, T/C [9]: 50.8%
- viability, T/C [10]: 48.6%
- viability, T/C (second compound 0.316 µM, first compound 0.00316 µM): 107%
- viability, T/C (second compound 0.316 µM, first compound 0.01 µM): 83.1%
- viability, T/C [13]: 67.3%
- viability, T/C [14]: 55.2%
- viability, T/C [15]: 55%
- viability, T/C [16]: 46.1%
- viability, T/C (second compound 1 µM, first compound 0.00316 µM): 93.7%
- viability, T/C (second compound 1 µM, first compound 0.01 µM): 83.2%
- viability, T/C [19]: 69.2%
- viability, T/C [20]: 52.3%
- viability, T/C [21]: 48.4%
- viability, T/C [22]: 50.8%
- viability, T/C (second compound 3.16 µM, first compound 0.00316 µM): 107%
- viability, T/C (second compound 3.16 µM, first compound 0.01 µM): 78.2%
- viability, T/C [25]: 60.7%
- viability, T/C [26]: 54.8%
- viability, T/C [27]: 57.5%
- viability, T/C [28]: 48.8%
- viability, T/C (second compound 10 µM, first compound 0.00316 µM): 94.8%
- viability, T/C (second compound 10 µM, first compound 0.01 µM): 90.8%
- viability, T/C [31]: 62.3%
- viability, T/C [32]: 60.3%
- viability, T/C [33]: 55%
- viability, T/C [34]: 46.3%
